ChEMBL document CHEMBL5154829, “Discovery and biological evaluation of tanshinone derivatives as potent dual inhibitors of indoleamine 2, 3-dioxygenase 1 and tryptophan 2, 3-dioxygenase” (Eur J Med Chem, 2022)
Calls of active or inactive are those of the source. No cut-off for these calls is given here.

Experiments:
[1] = biological target: T1, Tryptophan 2,3-dioxygenase (Homo sapiens, UniProt P48775); test: Inhibition of recombinant human TDO assessed as reduction in N-formylkynurenine formation using L-tryptophan as substrate and measured after 15 mins
Target sequence in this assay (P48775 whole entry): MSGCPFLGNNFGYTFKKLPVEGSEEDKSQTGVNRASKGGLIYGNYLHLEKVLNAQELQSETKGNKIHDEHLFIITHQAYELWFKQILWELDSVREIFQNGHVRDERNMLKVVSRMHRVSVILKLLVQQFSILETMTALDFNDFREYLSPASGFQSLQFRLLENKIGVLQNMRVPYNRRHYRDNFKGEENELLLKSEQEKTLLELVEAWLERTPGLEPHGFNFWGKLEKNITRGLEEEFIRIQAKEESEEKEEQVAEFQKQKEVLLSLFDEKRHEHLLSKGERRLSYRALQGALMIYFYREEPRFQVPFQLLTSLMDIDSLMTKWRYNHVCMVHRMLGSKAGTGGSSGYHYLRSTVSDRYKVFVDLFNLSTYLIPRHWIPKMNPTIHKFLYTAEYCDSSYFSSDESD

[2] = biological target: T2, Indoleamine 2,3-dioxygenase 1 (Homo sapiens, UniProt P14902); test: Inhibition of recombinant human IDO1 assessed as reduction in N-formylkynurenine formation using L-tryptophan as substrate and measured after 15 mins
Target sequence in this assay (P14902 whole entry): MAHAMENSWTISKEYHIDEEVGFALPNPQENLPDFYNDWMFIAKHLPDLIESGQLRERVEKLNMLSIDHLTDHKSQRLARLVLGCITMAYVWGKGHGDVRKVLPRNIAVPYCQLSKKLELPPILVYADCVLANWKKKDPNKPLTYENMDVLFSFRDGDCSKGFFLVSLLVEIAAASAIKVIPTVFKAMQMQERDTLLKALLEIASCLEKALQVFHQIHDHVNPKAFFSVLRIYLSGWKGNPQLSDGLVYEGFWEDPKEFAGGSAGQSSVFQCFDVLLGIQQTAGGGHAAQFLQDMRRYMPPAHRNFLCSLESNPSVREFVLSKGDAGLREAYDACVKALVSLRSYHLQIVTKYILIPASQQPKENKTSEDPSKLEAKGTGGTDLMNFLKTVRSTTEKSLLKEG

[3] = biological target: T1, Tryptophan 2,3-dioxygenase; test: Inhibition of TDO in human HEK293 cells assessed as reduction in kynurenine formation using L-tryptophan as substrate by absorbance based analysis; format: cell-based
Target sequence in this assay (P48775 whole entry): as the sequence (P48775 whole entry) above

[4] = biological target: T2, Indoleamine 2,3-dioxygenase 1; test: Inhibition of IDO1 in IFNgamma-stimulated human HeLa cells assessed as reduction in kynurenine formation using L-tryptophan as substrate by absorbance based analysis; format: cell-based
Target sequence in this assay (P14902 whole entry): as the sequence (P14902 whole entry) above

[5] = biological target: T1, Tryptophan 2,3-dioxygenase; test: Competitive inhibition of recombinant human TDO measured by surface plasmon resonance assay
Target sequence in this assay (P48775 whole entry): as the sequence (P48775 whole entry) above

[6] = tested on: HeLa; test: Induction of apoptosis in human HeLa cells assessed apoptotic cells at 10 uM measured after 24 hrs by Annexin V-FITC/PI based flow cytometry analysis; format: functional
[7] = biological target: T1, Tryptophan 2,3-dioxygenase; test: Competitive inhibition of recombinant human TDO measured by UV/visible spectrophotometric method
Target sequence in this assay (P48775 whole entry, looked up): as the sequence (P48775 whole entry) above

[8] = tested on: HeLa; test: Induction of apoptosis in human HeLa cells assessed apoptotic cells at 5 uM measured after 12 hrs by Annexin V-FITC/PI based flow cytometry analysis; format: functional
[9] = tested on: HeLa; test: Induction of apoptosis in IFNgamma-stimulated human HeLa cells assessed apoptotic cells at 5 uM measured after 12 hrs by Annexin V-FITC/PI based flow cytometry analysis; format: functional
[10] = tested on: HeLa; test: Induction of apoptosis in human HeLa cells assessed as decrease in Bcl-2 expression at 1 to 10 uM measured by western blot analysis; format: functional, cell-based; conditions: dose 1-10 µM
[11] = tested on: HeLa; test: Induction of apoptosis in human HeLa cells assessed as increase in Bax/Bcl-2 ratio at 1 to 10 uM measured by western blot analysis; format: functional, cell-based; conditions: dose 1-10 µM
[12] = Cytotoxicity against human HEK-293T cells; format: toxicity, cell-based
[13] = biological target: T2, Indoleamine 2,3-dioxygenase 1; test: Non-competitive inhibition of recombinant human IDO1 measured by UV/visible spectrophotometric method
Target sequence in this assay (P14902 whole entry, looked up): as the sequence (P14902 whole entry) above

[14] = Hemolytic activity in rat RBC at 500 uM incubated for 30 mins; format: toxicity, cell-based, Erythrocyte; conditions: rat red blood cells (erythrocytes), read-out: Activity
[15] = biological target: T2, Indoleamine 2,3-dioxygenase 1; test: Non-competitive inhibition of recombinant human IDO1 measured by surface plasmon resonance assay
Target sequence in this assay (P14902 whole entry): as above

[16] = tested on: HeLa; test: Induction of apoptosis in human HeLa cells assessed apoptotic cells at 5 uM measured after 6 hrs by Annexin V-FITC/PI based flow cytometry analysis; format: functional, cell-based
[17] = tested on: HeLa; test: Induction of apoptosis in human HeLa cells assessed as increase in Bax expression at 1 to 10 uM measured by western blot analysis; format: functional, cell-based; conditions: dose 1-10 µM

Row | Structure (SMILES) | IC50 [1] | IC50 [2] | IC50 [3] | IC50 [4] | also measured
1 | Cc1c(Br)oc2c1C(=O)C(=O)c1c-2ccc2c1CCCC2(C)C | > 10000 nM | > 10000 nM | – | – | –
2 | Cc1coc2c1C(=O)C(=O)c1c-2ccc2c1C(Br)CCC2(C)C (configuration not stated) | 710 nM | 1500 nM | 8100 nM | > 10000 nM | –
3 | Cc1coc2c1C(=O)C(=O)c1c-2ccc2c1CC[C@H](OS(C)(=O)=O)C2(C)C | 1210 nM | 810 nM | > 10000 nM | 5100 nM | –
4 | Cc1coc2c1C(=O)C(=O)c1c-2ccc2c1C=CC(=O)C2(C)C | 960 nM | 980 nM | > 10000 nM | 9330 nM | –
5 | CC1(C)C(=O)C=Cc2c1ccc1c2C(=O)C(=O)c2c(CCl)coc2-1 | 110 nM | 140 nM | 340 nM | 680 nM | –
6 | C[C@H]1COC2=C1C(=O)C(=O)c1c2ccc2c1CCCC2(C)C [CRYPTOTANSHINONE] | 9800 nM | 10000 nM | – | – | –
7 | NS(=O)(=O)NCCNc1nonc1C(=NO)Nc1ccc(F)c(Br)c1 [EPACADOSTAT] | 16100 nM | – | 10400 nM | – | –
8 | CC1(C)C(=O)C=Cc2c1ccc1c2C(=O)C(=O)c2c(CF)coc2-1 | 570 nM | 420 nM | 730 nM | 650 nM | –
9 | CC(=O)OCc1coc2c1C(=O)C(=O)c1c-2ccc2c1CC[C@H](O)C2(C)C | 2420 nM | 670 nM | 2060 nM | 2420 nM | –
10 | Cc1coc2c1C(=O)C(=O)c1c-2ccc2c1CCCC2(C)C [TANSHINONE IIA] | > 10000 nM | > 10000 nM | – | – | –
11 | CC(=O)Oc1c(OC(C)=O)c2c(C)coc2c2ccc3c(c12)CCCC3(C)C | > 10000 nM | > 10000 nM | – | – | –
12 | CC1(C)C(=O)C=Cc2c1ccc1c2C(=O)C(=O)c2c(C=O)coc2-1 | > 10000 nM | > 10000 nM | – | – | –
13 | CC1(C)C(=O)C=Cc2c1ccc1c2C(=O)C(=O)c2c(CO)coc2-1 | 450 nM | 220 nM | 1420 nM | 2560 nM | –
14 | CC(=O)OCc1coc2c1C(=O)C(=O)c1c-2ccc2c1CCC(=O)C2(C)C | 670 nM | 1730 nM | 860 nM | 810 nM | –
15 | C[C@@H](CO)C1=C(O)C(=O)c2c(ccc3c2CCCC3(C)C)C1=O | > 10000 nM | > 10000 nM | – | – | –
16 | CC1(C)C(=O)C=Cc2c1ccc1c2C(=O)C(=O)c2c(C(=O)O)coc2-1 | > 10000 nM | 4570 nM | > 10000 nM | 8550 nM | –
17 | CC1(C)c2ccc3c(c2CC[C@@H]1O)C(=O)C(=O)c1c(CO)coc1-3 | 1010 nM | 590 nM | 950 nM | 1670 nM | –
18 | CC(=O)O[C@H]1CCc2c(ccc3c2C(=O)C(=O)c2c(CO)coc2-3)C1(C)C | 1840 nM | 750 nM | 1910 nM | 1870 nM | –

The next lines start with results.

Row | IC50 [1] | IC50 [2] | IC50 [3] | IC50 [4] | Structure (SMILES) | also measured
19 | 370 nM | 400 nM | 2800 nM | > 10000 nM | CC(=O)O[C@H]1CCc2c(ccc3c2C(=O)C(=O)c2c(C)coc2-3)C1(C)C | –
20 | > 10000 nM | > 10000 nM | – | – | COC(=O)c1coc2c1C(=O)C(=O)c1c-2ccc2c1C=CC(=O)C2(C)C | –
21 | > 10000 nM | > 10000 nM | – | – | Cc1coc2c1c(=O)oc(=O)c1c3c(ccc12)C(C)(C)CCC3 | –
22 | 200 nM | 160 nM | 3130 nM | 450 nM | CC1(C)C(=O)CCc2c1ccc1c2C(=O)C(=O)c2c(CO)coc2-1 | –
23 | > 10000 nM | > 10000 nM | – | – | C[C@@H](C=O)C1=C(O)C(=O)c2c(ccc3c2CCCC3(C)C)C1=O | –
24 | 9540 nM | 3270 nM | > 10000 nM | > 10000 nM | CCN(CC)C(=O)c1coc2c1C(=O)C(=O)c1c-2ccc2c1C=CC(=O)C2(C)C | –
25 | > 10000 nM | > 10000 nM | – | – | Cc1coc2c1C(=O)C(=O)c1c-2ccc2c1C=CCC2(C)C | –
26 | 160 nM | 70 nM | 1870 nM | 270 nM | CC(=O)OCc1coc2c1C(=O)C(=O)c1c-2ccc2c1C=CC(=O)C2(C)C | Ki [5]: 730 nM; Activity [6]: 92.8%; inhibition [7]: Active; Activity [8]: 39.9%; Activity [9]: 68.6%; Activity [10]: Active; Activity [11]: Active; IC50 [12]: > 10000 nM; inhibition [13]: Active; hemolysis at 0.5 h, 500 µM [14]: 10%; Ki [15]: 230 nM; Activity [16]: Active; Activity [17]: Active
27 | > 10000 nM | > 10000 nM | – | – | Cc1c[nH]c2c1C(=O)C(=O)c1c-2ccc2c1CCCC2(C)C | –
28 | 1480 nM | 490 nM | > 10000 nM | > 10000 nM | Cc1coc2c1C(=O)C(=O)c1c-2ccc2c1C(=O)C(O)CC2(C)C (configuration not stated) | –
29 | 940 nM | 360 nM | > 10000 nM | > 10000 nM | Cc1coc2c1C(=O)C(=O)c1c-2ccc2c1CCC(=O)C2(C)C | –
30 | 2700 nM | 5120 nM | > 10000 nM | > 10000 nM | Cc1coc2c1C(=O)C(=O)c1c-2ccc2c1CC[C@H](O)C2(C)C | –
31 | 450 nM | 1070 nM | 7180 nM | > 10000 nM | CC1(C)CCCc2c1ccc1c2C(=O)C(=O)c2c(CO)coc2-1 [PRZEWAQUINONE A] | –
32 | 1010 nM | 2880 nM | > 10000 nM | > 10000 nM | Cc1coc2c1C(=O)C(=O)c1c-2ccc2c1C(=O)C(O)=CC2(C)C | –
